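Interpolation was linear, between the two tested concentrations surrounding the appropriate level; five concentrations were tested over 48 hours in 96-well plates. TGI denotes the concentration required for complete inhibition of growth.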 Where a SMILES comes first, the peptide text is derived from it. The star is where a group is joined. Boc = CC(C)(C)OC(=O)*
Columns and labels:
Test in all cases: NCI-60 cell line screen, 48 h
[1] = test system: MOLT-4 leukemia
[2] = test system: A498 renal
[3] = test system: U251 CNS
[4] = test system: RPMI-8226 leukemia
[5] = test system: K-562 leukemia
[6] = test system: ACHN renal
[7] = test system: 786-0 renal
[8] = test system: IGROV1 ovarian
[9] = test system: SF-539 CNS
[10] = test system: SK-MEL-2 melanoma
[11] = test system: CCRF-CEM leukemia
[12] = test system: UACC-62 melanoma
[13] = test system: COLO 205 colon
[14] = test system: CAKI-1 renal
[15] = test system: MDA-MB-231 breast
[16] = test system: MDA-MB-435
[17] = test system: HS 578T breast

Measured: TGI

CCNc1nc2c(=O)n(C)c(=O)n(C)c2s1
not listed: [14] | [15] | [16] | [17]
> 100 µM: all other assays above

CNC(=O)CNC(=O)C(NC(=O)CNC(=O)C1CCCN1C(=O)C(C)NC(=O)C(NC(=O)OC(C)(C)C)C(C)C)C(C)C (stereo not drawn) (Boc-VAPGVG-NHMe; configuration not given here)
not listed: [17]
> 100 µM: all other assays above

O=c1[nH]ncc2[nH]c(-c3ccccc3)cc12
71 µM: [10]
not listed: [2] | [9] | [17]
> 100 µM: all other assays above

CC(=O)c1cc2sc3ccccc3c2[nH]1
not listed: [8] | [11] | [17]
> 100 µM: all other assays above

Cc1ccc(NCCO)cc1
not listed: [2] | [15] | [16] | [17]
> 100 µM: all other assays above

CCc1nc2c(n1CC)C(=O)c1ccccc1C2=O
49.4 µM: [15]
43.4 µM: [13]
32.2 µM: [16]
not listed: [2] | [10] | [14]
> 100 µM: all other assays above

CC(=O)OC12c3ccccc3C(c3ccccc31)C1C(=O)N(c3ccccc3O)C(=O)C12 (stereo not drawn)
not listed: [10] | [12] | [16]
> 100 µM: all other assays above

Nc1c2ccccc2nc2nccnc12
not listed: [15] | [16] | [17]
> 100 µM: all other assays above

COc1ccc(/C=C2\C(=O)Nc3ccccc32)cc1OC
64 µM: [4]
not listed: [15] | [16] | [17]
> 100 µM: all other assays above

CNc1cccc(-c2cc(=O)c3cc4c(cc3[nH]2)OCO4)c1
11 µM: [11]
0.63 µM: [13]
4.52 µM: [15]
> 100 µM: [6] | [7] | [14] | [8] | [12]
0.573 µM: [9]
> 19 µM: [5]
> 20.9 µM: [1]
> 49.5 µM: [3]
8.96 µM: [17]
> 44.5 µM: [10]

COc1ccc(-c2cc(=O)c3cc4c(cc3[nH]2)OCO4)c(OC)c1
not listed: [2] | [15] | [16] | [17]
> 100 µM: all other assays above

COc1cc(Br)cc2c1O[C@H]1C(=O)CC3CC21CCN3C (stereo partly drawn)
46.3 µM: [5]
63.4 µM: [4]
61.6 µM: [1]
43.9 µM: [11]
not listed: [3] | [15]
> 100 µM: all other assays above
